Measurements from the supplement of paper PMC10883282.

How the values were obtained:
Test in all cases: relative viability vs DMSO control (72 h) (fraction); higher = more viable cells
KHOS-240S = system: KHOS-240S
Method in brief: (§1)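 After seeding at densities set for 80–90% confluence in 384-well plates, sarcoma cell lines waited 24 h before 2.5 µl of serially diluted compound was added. Source plates held 10 mM down to 0.0002 mM. Plates were incubated 72 h at 37 °C with 5% CO2, with 0.1% DMSO vehicle and a 5 µM positive control, and relative viability was taken from ATPLite as percent growth averaged over up to triplicate wells, with 1 set as full and 0 as none.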

MES-SA = system: MES-SA
Method in brief: as §1

RD = system: RD
Method in brief: as §1

SW1353 = system: SW1353
Method in brief: as §1

SYO-1 = system: SYO-1
Method in brief: as §1

CC(C)NC[C@@H](C(=O)N1CCN(c2ncnc3c2[C@H](C)C[C@H]3O)CC1)c1ccc(Cl)cc1 [Ipatasertib]
relative viability
Settings	KHOS-240S	MES-SA	RD	SW1353	SYO-1
0.00017 µM	1.06	0.935	1.03	1.04	0.95
0.00051 µM	1.04	0.904	1.06	1.05	0.94
0.00152 µM	1.05	0.9385	1.06	1.03	0.862
0.00457 µM	1.05	0.905	1.05	1.02	0.821
0.01372 µM	1.06	0.8986	1.07	0.991	0.807
0.04115 µM	0.991	0.847	1.05	0.93	0.776
0.1235 µM	1.01	0.751	0.991	0.935	0.719
0.3704 µM	0.938	0.619	0.916	0.862	0.656
1.111 µM	0.87	0.467	0.799	0.864	0.636
3.333 µM	0.823	0.317	0.681	0.781	0.549
10 µM	0.703	0.24	0.623	0.727	0.504

C[C@]12O[C@H](C[C@]1(O)CO)n1c3ccccc3c3c4c(c5c6ccccc6n2c5c31)CNC4=O [Lestaurtinib]
relative viability
Settings	KHOS-240S	MES-SA	RD	SW1353	SYO-1
0.00017 µM	1.086	0.966	1.05	1.04	1.02
0.00051 µM	1.06	0.928	1.064	1.01	0.989
0.00152 µM	1.1	0.947	1.09	1	0.992
0.00457 µM	1.04	0.947	1.09	0.975	0.991
0.01372 µM	1.06	0.874	1.1	0.943	0.943
0.04115 µM	1.05	0.751	1.06	0.868	0.873
0.1235 µM	0.892	0.538	1.01	0.756	0.644
0.3704 µM	0.525	0.333	0.892	0.698	0.295
1.111 µM	0.345	0.2911	0.645	0.6462	0.0874
3.333 µM	0.169	0.164	0.326	0.375	0.1
10 µM	0.0619	0.00447	0.126	0.155	0.102
